Patent US20040110802A1, “Antibacterial benzoic acid derivatives” (priority 2002, published 2004)
In brackets after ≈: the same amount, converted by molar mass.

Tested on: SAUR 9218
Test: MIC Test Method, standard agar dilution
Assay type: cell-based
Details: agar dilution, Mueller Hinton agar, incubated overnight at 35° C., lowest concentration that inhibits visible growth; for MIC: read-out: SAUR 9218 MIC
Method in brief: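 Agar dilution in Mueller Hinton agar with serial 2-fold compound dilutions. Staphylococcus aureus strain 9218 spotted at approximately 10^4 to 10^5 cells per spot, incubated overnight at 35 °C; MIC (μg/ml) is the lowest concentration preventing visible growth.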

Structure (SMILES) | MIC [µg/mL] | SAUR 9218 MIC [µg/mL]
N#Cc1ccc(NC(=O)c2noc3ccc(S(=O)(=O)N4CCOCC4)cc23)c(C(=O)O)c1 | 0.5 (≈ 1.1 µM) | –
CCCCCCSc1ccc(C(=O)Nc2ccc(Br)cc2C(=O)O)nc1 | 0.5 (≈ 1.14 µM) | –
CCOP(=O)(Cc1ccc(NS(=O)(=O)c2cc(C(=O)Nc3ccc(Br)cc3C(=O)O)sc2C)cc1)OCC | 64 (≈ 99.1 µM) | –
CN(c1ccc(Cl)cc1)S(=O)(=O)c1ccc(C(=O)Nc2ccc(Br)cc2C(=O)O)s1 | 2 (≈ 3.77 µM) | –
Cc1sc(C(=O)Nc2ccc(C#N)cc2C(=O)O)cc1S(=O)(=O)N1CCCC(C)C1 (stereo not drawn) | 2 (≈ 4.47 µM) | –
COc1ccccc1-c1cnc(C(=O)Nc2ccc(C#N)cc2C(=O)O)o1 | 1 (≈ 2.75 µM) | –
N#Cc1ccc(NC(=O)c2noc3ccc(NS(=O)(=O)c4ccc(F)cc4)cc23)c(C(=O)O)c1 | 0.125 (≈ 0.26 µM) | –
Cl.Cn1c(C(=O)Nc2ccc(C#N)cc2C(=O)O)cc2cccc(OCC(O)CN3CCOCC3)c21 (stereo not drawn) | 1 | –
CC(C)(C)c1ccc(-c2cncc(C(=O)Nc3ccc(C#N)cc3C(=O)O)c2)cc1 | 32 (≈ 80.1 µM) | –
O=C(Nc1ccc(Br)cc1C(=O)O)c1cc(CCCC2CCCCC2)on1 | 4 (≈ 9.19 µM) | –
CN(C)c1ccc2onc(C(=O)Nc3ccc(C#N)cc3C(=O)O)c2c1 | 0.25 (≈ 0.714 µM) | –
N#Cc1ccc(NC(=O)c2noc3c2CCCC3)c(C(=O)O)c1 | 0.5 (≈ 1.61 µM) | –
N#Cc1ccc(NC(=O)c2cc3cccc(NC(=O)c4ccccc4-c4ccccc4)c3[nH]2)c(C(=O)O)c1 | 1 (≈ 2 µM) | –
Cc1ncsc1CCOc1ccccc1-c1cc(C(=O)Nc2ccc(C#N)cc2C(=O)O)no1 | 128 (≈ 270 µM) | –
N#Cc1ccc(NC(=O)c2cc3ccccc3n2CCCc2ccccc2)c(C(=O)O)c1 | 4 (≈ 9.45 µM) | –
Cn1nc(C(=O)Nc2ccc(C#N)cc2C(=O)O)c2ccccc21 | 32 (≈ 99.9 µM) | –
Cc1c(S(=O)(=O)N(C)c2ccc(Cl)cc2)csc1C(=O)Nc1ccc(Br)cc1C(=O)O | 8 (≈ 14.7 µM) | –
Cn1c(C(=O)Nc2ccc(I)cc2C(=O)O)cc2cccc(S(=O)(=O)c3ccccc3)c21 | 0.125 (≈ 0.223 µM) | –
N#Cc1ccc(NC(=O)c2cc3cccc(NC(=O)Cc4ccc(Cl)c(Cl)c4)c3[nH]2)c(C(=O)O)c1 | 0.125 (≈ 0.246 µM) | –
O=C(Nc1ccc(Br)cc1C(=O)O)c1cccc(Br)n1 | 64 (≈ 160 µM) | –

Structure (SMILES) | MIC [µg/mL] | SAUR 9218 MIC [µg/mL]
Cn1c(C(=O)Nc2ccc(C#N)cc2C(=O)O)cc2ccc(NS(C)(=O)=O)cc21 | 4 (≈ 9.7 µM) | –
COc1cccc(-c2cnc(C(=O)Nc3ccc(Br)cc3C(=O)O)o2)c1 | 1 (≈ 2.4 µM) | –
O=C(Nc1ccc(Cl)cc1C(=O)O)c1cc(-c2ccccc2)on1 [drawing 1111] | – | 0.5
N#Cc1ccc(NC(=O)c2cc3cccc(NS(=O)(=O)Cc4ccccc4)c3[nH]2)c(C(=O)O)c1 | 0.125 (≈ 0.263 µM) | –
O=C(Nc1ccc(Br)cc1C(=O)O)c1ccsc1 | > 128 | –
O=C(O)c1cc(Br)ccc1NC(=O)c1onc2ccccc12 | 2 (≈ 5.54 µM) | –
N#Cc1ccc(NC(=O)c2noc3ccc(NCC(O)CO)cc23)c(C(=O)O)c1 (stereo not drawn) | 2 (≈ 5.05 µM) | –
N#Cc1ccc(NC(=O)c2cncc(C#CC3C=NNC3)c2)c(C(=O)O)c1 (stereo not drawn) | 4 (≈ 11.1 µM) | –
CCN(CC)c1ccc(NS(=O)(=O)c2cc(C(=O)Nc3ccc(Br)cc3C(=O)O)cs2)cc1 | > 128 | –
Cc1sc(C(=O)Nc2ccc(C#N)cc2C(=O)O)cc1S(=O)(=O)N(CCO)Cc1ccccc1 | 16 (≈ 32 µM) | –
COC1CCn2c(C(=O)Nc3ccc(C#N)cc3C(=O)O)cc3cccc1c32 (stereo not drawn) | 0.5 (≈ 1.33 µM) | –
N#Cc1ccc(NC(=O)c2cc3ccccc3n2CC2CCCCC2)c(C(=O)O)c1 | 1 (≈ 2.49 µM) | –
Cl.Cn1c(C(=O)Nc2ccc(C#N)cc2C(=O)O)cc2cccc(OCC(O)Cn3ccnc3)c21 (stereo not drawn) | 0.5 | –
Cc1noc(C)c1-c1cnc(C(=O)Nc2ccc(C#N)cc2C(=O)O)cn1 | > 128 | –
CCN(CC)c1ccc(NS(=O)(=O)c2csc(C(=O)Nc3ccc(Br)cc3C(=O)O)c2C)cc1 | 64 (≈ 113 µM) | –
O=C(Nc1ccc(Cl)cc1C(=O)O)c1ncc(-c2ccccc2)o1 | 1 (≈ 2.92 µM) | –
CC(C)(C)c1ccc(CC(=O)Nc2cccc3cc(C(=O)Nc4ccc(C#N)cc4C(=O)O)[nH]c23)cc1 | 0.5 (≈ 1.01 µM) | –
CCCCCSc1cnc(C(=O)Nc2ccc(Br)cc2C(=O)O)cn1 | 0.25 (≈ 0.589 µM) | –
N#Cc1ccc(NC(=O)c2noc3ccc(-c4ccc(C(=O)N5CCOCC5)cc4)cc23)c(C(=O)O)c1 | 0.25 (≈ 0.504 µM) | –
